Ki, EC50 and Emax data for 24 molecules are collected here from patent publication US20090062251A1, “Novel Compounds 002” (ASTRAZENECA AB, priority 2007, published 2009).

Structures are written as SMILES.

Test [1] has as its target T1, Human CB1 receptor (hCB1) (Homo sapiens, UniProt P21554).
T1 construct: purchased Receptor Biology
In words: hCB1 receptor binding (3H-CP55,940 displacement). The settings on record: hCB1 membranes, Ki=IC50/(1+[rad]/Kd). The method, then: hCB1 and hCB2 Receptor Binding
Human CB1 receptor from Receptor Biology (hCB1) or human CB2 receptor from BioSignal (hCB2) membranes are thawed at 37° C., passed 3 times through a 25-gauge blunt-end needle, diluted in the cannabinoid binding buffer (50 mM Tris, 2.5 mM EDTA, 5 mM MgCl2, and 0.5 mg/mL BSA fatty acid free, pH 7.4) and aliquots containing the appropriate amount of protein are distributed in 96-well plates. […] The total and non-specific binding are determined in the absence and presence of 0.2 μM of HU210 respectively. The plates are vortexed and incubated for 60 minutes at room temperature, filtered through Unifilters GF/B (presoaked in 0.1% polyethyleneimine) with the Tomtec or Packard harvester using 3 mL of wash buffer (50 mM Tris, 5 mM MgCl2, 0.5 mg BSA pH 7.0). The filters are dried for 1 hour at 55° C. The radioactivity (cpm) is counted in a TopCount (Packard) after adding 65 μl/well of MS-20 scintillation liquid.
Based on the above assays, the dissociation constant (Ki) for a particular compound of the invention towards a particular receptor is determined using the following equation:
[rad] is a standard or reference radioactive ligand concentration at that moment; and
Kd is the dissociation constant of the radioactive ligand towards the particular receptor.

The target of test [2] is T1, Human CB1 receptor (hCB1). Briefly: hCB1 GTPγS binding. In kind it is biochemical. The settings on record: for EC50: hCB1 membranes, GTPγ35S, 10-point dose-response; for Emax: maximal stimulated binding determined with 10 μM Win 55,212-2. The method, then:
hCB1 and hCB2 GTPγS Binding
Human CB1 receptor from Receptor Biology (hCB1) or human CB2 receptor membranes (BioSignal) are thawed at 37° C., passed 3 times through a 25-gauge blunt-end needle and diluted in the GTPγS binding buffer (50 mM Hepes, 20 mM NaOH, 100 mM NaCl, 1 mM EDTA, 5 mM MgCl2, pH 7.4, 0.1% BSA). […] The basal and maximal stimulated binding is determined in absence and presence of 1 μM (hCB2) or 10 μM (hCB1) Win 55, 212-2 respectively. The membranes are pre-incubated for 5 minutes with 56.25 μM (hCB2) or 112.5 μM (hCB1) GDP prior to distribution in plates (15 μM (hCB2) or 30 μM (hCB1) GDP final). The plates are vortexed and incubated for 60 minutes at room temperature, filtered on Unifilters GF/B (presoaked in water) with the Tomtec or Packard harvester using 3 ml of wash buffer (50 mM Tris, 5 mM MgCl2, 50 mM NaCl, pH 7.0). The filters are dried for 1 hour at 55° C. The radioactivity (cpm) is counted in a TopCount (Packard) after adding 65 μl/well of MS-20 scintillation liquid. Antagonist reversal studies are done in the same way except that (a) an agonist dose-response curve is done in the presence of a constant concentration of antagonist, or (b) an antagonist dose-response curve is done in the presence of a constant concentration of agonist.

The Ki is a dissociation constant, usually derived from enzyme kinetics or from competition with a known ligand. A higher Ki goes with lower affinity. A word on the EC50: it is the concentration needed to bring the measured effect to its halfway point. As a reminder, the Emax is the greatest response seen or fitted, relative to the assay's reference.

T1 sequence (P21554 whole entry): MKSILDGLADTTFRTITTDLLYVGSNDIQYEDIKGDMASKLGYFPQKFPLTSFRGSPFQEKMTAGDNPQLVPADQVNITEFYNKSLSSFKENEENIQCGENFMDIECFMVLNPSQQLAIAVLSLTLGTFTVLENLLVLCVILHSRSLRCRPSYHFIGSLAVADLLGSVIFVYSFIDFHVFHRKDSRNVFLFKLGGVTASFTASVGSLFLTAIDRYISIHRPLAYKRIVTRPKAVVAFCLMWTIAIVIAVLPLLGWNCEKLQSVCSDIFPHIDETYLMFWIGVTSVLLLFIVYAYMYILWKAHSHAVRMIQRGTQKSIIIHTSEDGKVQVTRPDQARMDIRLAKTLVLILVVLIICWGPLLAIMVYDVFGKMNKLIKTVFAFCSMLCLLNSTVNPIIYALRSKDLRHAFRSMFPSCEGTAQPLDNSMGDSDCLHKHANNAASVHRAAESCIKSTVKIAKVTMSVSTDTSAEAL

`CCN(CC(=O)NC)C(=O)c1ccc2c(c1)c1c(n2C)CCC(C2CCOCC2)C1` (stereo not shown) [N-ethyl-9-methyl-N-(methylcarbamoylmethyl)-6-(oxan-4-yl)-5,6,7,8-tetrahydrocarbazole-3-carboxamide] showed a Ki in test [1] of 140 nM. Besides, in test [2], a half-maximal effect (EC50) was put at 342 nM and the Emax came to 116%.
Molecule `Cn1c2c(c3cc(C(=O)N4CC[C@H](C(=O)NCC5CC5)C4)ccc31)CC(C1CCOCC1)CC2` (stereo partly drawn) [(3S)—N-(cyclopropylmethyl)-1-[9-methyl-6-(oxan-4-yl)5,6,7,8-tetrahydrocarbazole-3-carbonyl]pyrrolidine-3-carboxamide] returned a Ki in test [1] of 109 nM. In test [2], this molecule yielded an EC50 of 251 nM and an Emax of 117%.
The molecule `Cn1c2c(c3cc(C(=O)N4CC(C(=O)NC5CC5)C4)ccc31)CC(C1CCOCC1)CC2` (stereo not shown) [N-cyclopropyl-1-[9-methyl-6-(oxan-4-yl)5,6,7,8-tetrahydrocarbazole-3-carbonyl]azetidine-3-carboxamide] yielded a Ki in test [1] of 107 nM. In test [2], this molecule returned an EC50 of 274 nM and an Emax of 121%.
The corresponding values for `CN(CCCC(=O)NCCO)C(=O)c1ccc2c(c1)c1c(n2C)CCC(C2CCOCC2)C1` (stereo not shown) [N-[3-(2-hydroxyethylcarbamoyl)propyl]-N,9-dimethyl-6-(oxan-4-yl)-5,6,7,8-tetrahydrocarbazole-3-carboxamide] are 90.9 nM, 155 nM and 122%.
The corresponding values for `CCN(CC(=O)NC1COC1)C(=O)c1ccc2c(c1)c1c(n2C)CCC(C2CCOCC2)C1` (stereo not shown) [N-ethyl-9-methyl-6-(oxan-4-yl)-N-(oxetan-3-ylcarbamoylmethyl)-5,6,7,8-tetrahydrocarbazole-3-carboxamide] are 63 nM, 128 nM and 117%.
The corresponding values for `CCn1c2c(c3cc(C(=O)N(C)CCCC(=O)NCCF)ccc31)CC(C1CCOCC1)CC2` (stereo not shown) [9-ethyl-N-[3-(2-fluoroethylcarbamoyl)propyl]-N-methyl-6-(oxan-4-yl)-5,6,7,8-tetrahydrocarbazole-3-carboxamide] are 25.8 nM, 60.3 nM and 119%.
Molecule `CCN(CC(=O)NC[C@@H](C)O)C(=O)c1ccc2c(c1)c1c(n2C)CCC(C2CCOCC2)C1` (stereo partly drawn) [N-ethyl-N-[[(2R)-2-hydroxypropyl]carbamoylmethyl]-9-methyl-6-(oxan-4-yl)-5,6,7,8-tetrahydrocarbazole-3-carboxamide] returned a Ki in test [1] of 182 nM. Also, in test [2], the concentration for a half-maximal effect (EC50) came out at 318 nM and the Emax was determined as 124%.
As to `CCN(CC(=O)NCC#N)C(=O)c1ccc2c(c1)c1c(n2C)CCC(C2CCOCC2)C1` (stereo not shown) [N-(cyanomethylcarbamoylmethyl)-N-ethyl-9-methyl-6-(oxan-4-yl)-5,6,7,8-tetrahydrocarbazole-3-carboxamide], in test [1], the inhibition constant (Ki) came to 333 nM.
`CN(C(=O)c1ccc2c(c1)c1c(n2C)CCC(C2CCOCC2)C1)C1(C(=O)NC2CC2)CC1` (stereo not shown) [N-[1-(cyclopropylcarbamoyl)cyclopropyl]-N,9-dimethyl-6-(oxan-4-yl)-5,6,7,8-tetrahydrocarbazole-3-carboxamide]: the affinity in test [1], expressed as Ki, was 371 nM.
The molecule `CCN(CC(=O)NC(C)C)C(=O)c1ccc2c(c1)c1c(n2C2CCC2)CCC(C2CCOCC2)C1` (stereo not shown) [9-cyclobutyl-N-ethyl-6-(oxan-4-yl)-N-(propan-2-ylcarbamoylmethyl)-5,6,7,8-tetrahydrocarbazole-3-carboxamide] had a Ki in test [1] of 152 nM. In addition, in test [2], the response was half-maximal at 293 nM (EC50) and the Emax is 70%.
As for `CCN(CC(=O)NCCCF)C(=O)c1ccc2c(c1)c1c(n2S(=O)(=O)CC)CCC(C2CCOCC2)C1` (stereo not shown) [N-ethyl-9-ethylsulfonyl-N-(3-fluoropropylcarbamoylmethyl)-6-(oxan-4-yl)-5,6,7,8-tetrahydrocarbazole-3-carboxamide], the affinity in test [1] corresponds to a Ki of 24 nM. In test [2], this molecule had an EC50 of 33 nM and an Emax of 120%.
Take `Cn1c2c(c3cc(C(=O)N4CC[C@H](C(=O)NCCF)C4)ccc31)CC(C1CCOCC1)CC2` (stereo partly drawn) [(3S)—N-(2-fluoroethyl)-1-[9-methyl-6-(oxan-4-yl)5,6,7,8-tetrahydrocarbazole-3-carbonyl]pyrrolidine-3-carboxamide]: the Ki in test [1] was 30.5 nM. The same molecule showed an Emax in test [2] of 119%.
The molecule `CCN(CC(=O)NCC(F)(F)F)C(=O)c1ccc2c(c1)c1c(n2S(=O)(=O)CC)CCC(C2CCOCC2)C1` (stereo not shown) [N-ethyl-9-ethylsulfonyl-6-(oxan-4-yl)-N-(2,2,2-trifluoroethylcarbamoylmethyl)-5,6,7,8-tetrahydrocarbazole-3-carboxamide] displayed a Ki in test [1] of 25.1 nM. In test [2], this molecule registered an EC50 of 51.4 nM and a maximal response (Emax) of 112%.
Molecule `CCN(CC(=O)NCC(F)F)C(=O)c1ccc2c(c1)c1c(n2C)CCC(C2CCOCC2)C1` (stereo not shown) [N-(2,2-difluoroethylcarbamoylmethyl)-N-ethyl-9-methyl-6-(oxan-4-yl)-5,6,7,8-tetrahydrocarbazole-3-carboxamide] had a Ki in test [1] of 17.1 nM. In test [2], the EC50 was determined as 39.9 nM and the Emax stood at 116%.
Regarding `C[C@@H](C(=O)NCCF)N(C)C(=O)c1ccc2c(c1)c1c(n2C)CCC(C2CCOCC2)C1` (stereo partly drawn) [N-[(1S)-1-(2-fluoroethylcarbamoyl)ethyl]-N,9-dimethyl-6-(oxan-4-yl)-5,6,7,8-tetrahydrocarbazole-3-carboxamide], the Ki in test [1] is > 1400 nM.
Molecule `Cn1c2c(c3cc(C(=O)N4CC(CC(=O)NC5CC5)C4)ccc31)CC(C1CCOCC1)CC2` (stereo not shown) [N-cyclopropyl-2-[1-[9-methyl-6-(oxan-4-yl)5,6,7,8-tetrahydrocarbazole-3-carbonyl]azetidin-3-yl]acetamide] registered an inhibition constant Ki in test [1] of 2080 nM.
`Cn1c2c(c3cc(C(=O)NCCCC(=O)NC4CC4)ccc31)CC(C1CCOCC1)CC2` (stereo not shown) [N-[3-(cyclopropylcarbamoyl)propyl]-9-methyl-6-(oxan-4-yl)-5,6,7,8-tetrahydrocarbazole-3-carboxamide] showed an inhibition constant Ki in test [1] of 1440 nM.
Consider `C[C@@H](C(=O)NC1CC1)N(C)C(=O)c1ccc2c(c1)c1c(n2C)CCC(C2CCOCC2)C1` (stereo partly drawn) [N-[(1S)-1-(cyclopropylcarbamoyl)ethyl]-N,9-dimethyl-6-(oxan-4-yl)-5,6,7,8-tetrahydrocarbazole-3-carboxamide], for which, in test [1], the Ki is > 3530 nM.
With `Cn1c2c(c3cc(C(=O)NCCF)ccc31)CC(C1CCOCC1)CC2` (stereo not shown) [N-(2-fluoroethyl)-9-methyl-6-(oxan-4-yl)-5,6,7,8-tetrahydrocarbazole-3-carboxamide], the Ki in test [1] came out at 659 nM.
Consider `CNCCN(C)C(=O)c1ccc2c(c1)c1c(n2C)CCC(C2CCOCC2)C1` (stereo not shown) [N,9-dimethyl-N-(2-methylaminoethyl)-6-(oxan-4-yl)-5,6,7,8-tetrahydrocarbazole-3-carboxamide], for which the inhibitory constant (Ki) in test [1] is > 8720 nM.
Still for that read-out and setting: under `CCN(CC(=O)NC1(C#N)CC1)C(=O)c1ccc2c(c1)c1c(n2C)CCC(C2CCOCC2)C1` (stereo not shown) [N-[(1-cyanocyclopropyl)carbamoylmethyl]-N-ethyl-9-methyl-6-(oxan-4-yl)-5,6,7,8-tetrahydrocarbazole-3-carboxamide] stands > 1170 nM; under `CN(CCC(=O)NC1CC1)C(=O)c1ccc2c(c1)c1c(n2C)CCC(C2CCOCC2)C1` (stereo not shown) [N-[2-(cyclopropylcarbamoyl)ethyl]-N,9-dimethyl-6-(oxan-4-yl)-5,6,7,8-tetrahydrocarbazole-3-carboxamide], 655 nM.
`Cn1c2c(c3cc(C(=O)N4CC[C@H](NC(=O)C5CC5)C4)ccc31)CC(C1CCOCC1)CC2` (stereo partly drawn) [N-[(3S)-1-[9-methyl-6-(oxan-4-yl)5,6,7,8-tetrahydrocarbazole-3-carbonyl]pyrrolidin-3-yl]cyclopropanecarboxamide]: in test [2], the EC50 was 1150 nM and the Emax came to 116%.
For `CCS(=O)(=O)n1c2c(c3cc(C(=O)N4CCC[C@@H]4C(=O)NCCF)ccc31)CC(C1CCOCC1)CC2` (stereo partly drawn) [(2R)-1-[9-ethylsulfonyl-6-(oxan-4-yl)5,6,7,8-tetrahydrocarbazole-3-carbonyl]-N-(2-fluoroethyl)pyrrolidine-2-carboxamide], in test [2], the EC50 amounted to 1700 nM and the Emax was > 107%.
